Assay results taken from PMC10544575, “Inhibitory mechanism of vortioxetine on CYP450 enzymes in human and rat liver microsomes” (Frontiers in Pharmacology, 2023).
pIC50: −log10 of the molar value. “Also recorded” adds a separate entry of the source. Read-outs that look alike come from different tables or passages of the source.

Legend:
CYP2C-1 [1] = assay: IC50-shift experiment, CYP2C-1 in RLMs; format: in vitro ADME, rat
CYP2C-2 = assay: Reversible inhibition kinetics (Lineweaver-Burk), CYP2C-2 in RLMs; format: in vitro ADME, rat
Protocol: (§1) The components of the incubation system were as follows: 0.20 mg/mL HLMs or 0.20 mg/mL RLMs, 0.1 M Tris-HCl, vortioxetine, and the probe substrates of each enzyme. In the study of Km’s (Michaelis–Menten constant) experiment, midazolam (1, 2, 5, 10, 20, 50 and 100 μM in HLMs and RLMs) corresponded to CYP3A4/3A; bupropion (10, 20, 50, 100, 200, 500, 1,000 and 2000 μM in HLMs; 1, 2, 5, 10, 20, 50, 100 and 200 μM in RLMs) corresponded to CYP2B6/2B; amodiaquine (5, 10, 20, 50, 100 and 200 μM in HLMs; 10, 20, 50, 100, 200, 500 μM in RLMs) corresponded to CYP2C8/CYP2C-1; losartan (1, 2, 5, 10, 20, 50, 100, 200 μM in HLMs; 10, 20, 50, 100, 200, 500 and 1,000 μM in RLMs) corresponded to CYP2C9/CYP2C-2; mephenytoin (20, 50, 100, 200, 500 and 1,000 μM in HLMs; 5, 10, 20, 50, 100, 200, 500 and 1,000 μM in RLMs) corresponded to CYP2C19/CYP2C-3; and dextromethorphan (1, 2, 5, 10, 20, 50 and 100 μM in HLMs and RLMs) corresponded to CYP2D6/CYP2D. […]
(§2) All experiments results were detected by UPLC-MS/MS, which equipped with a Waters Acquity UPLC system (Milford, MA, United States) and a Waters Xevo TQ-S triple quadrupole tandem mass spectrometer with an electrospray ionization source (Milford, MA, United States). […]
(§3) IC50 values and enzyme kinetic parameters were calculated by Graphpad Prism 6.0 (GraphPad software Inc., CA, United States). […] Data for each experiment were expressed as mean ± SD (n = 3).

CYP2C9 = CYP2C9 (Homo sapiens, UniProt P11712); assay: IC50-shift experiment, CYP2C9 in HLMs; format: in vitro ADME; parameters: 0.20 mg/mL HLMs or 0.20 mg/mL RLMs; from tissue; host or cells: human liver microsomes; details: for pIC50: losartan 8 μM
Protocol: as §1, with “CYP2D6/CYP2D. After 5.0 min of preincubation in the shaking water bath, the reaction was started with the addition of 1.0 mM NADPH. The incubated temperature at 37°C for 30 min. After the incubation, the enzyme reaction was stopped by cooling at −80°C, and 200 μL of acetonitrile and 20 μL of internal standard diazepam (200 ng/mL) were added for protein precipitation.” for “CYP2D6/CYP2D.”
IC50-shift was used to investigate whether the drug produced time-dependent inhibition (TDI) of the enzyme. […] During the experiment, the individual substrates midazolam (4 μM), bupropion (40 μM), amodiaquine (3 μM), losartan (8 μM), mephenytoin (90 μM), and dextromethorphan (10 μM) were determined with vortioxetine IC50-shift in HLMs. […]
as §2, §3

CYP450 = assay: Overall assessment of time-dependent inhibition (IC50-shift) on CYP450 in HLMs and RLMs; format: in vitro ADME, human and rat
Protocol: IC50-shift was used to investigate whether the drug produced time-dependent inhibition (TDI) of the enzyme. […] The above mixture was then incubated for another 30 min. During the experiment, the individual substrates midazolam (4 μM), bupropion (40 μM), amodiaquine (3 μM), losartan (8 μM), mephenytoin (90 μM), and dextromethorphan (10 μM) were determined with vortioxetine IC50-shift in HLMs. […] Other experimental conditions were the same as above.

CYP2C-1 [2] = assay: Reversible inhibition kinetics (Lineweaver-Burk), CYP2C-1 in RLMs; format: in vitro ADME, rat
Protocol: The components of the incubation system were as follows: 0.20 mg/mL HLMs or 0.20 mg/mL RLMs, 0.1 M Tris-HCl, vortioxetine, and the probe substrates of each enzyme. In the study of Km’s (Michaelis–Menten constant) experiment, midazolam (1, 2, 5, 10, 20, 50 and 100 μM in HLMs and RLMs) corresponded to CYP3A4/3A; bupropion (10, 20, 50, 100, 200, 500, 1,000 and 2000 μM in HLMs; 1, 2, 5, 10, 20, 50, 100 and 200 μM in RLMs) corresponded to CYP2B6/2B; amodiaquine (5, 10, 20, 50, 100 and 200 μM in HLMs; 10, 20, 50, 100, 200, 500 μM in RLMs) corresponded to CYP2C8/CYP2C-1; losartan (1, 2, 5, 10, 20, 50, 100, 200 μM in HLMs; 10, 20, 50, 100, 200, 500 and 1,000 μM in RLMs) corresponded to CYP2C9/CYP2C-2; mephenytoin (20, 50, 100, 200, 500 and 1,000 μM in HLMs; 5, 10, 20, 50, 100, 200, 500 and 1,000 μM in RLMs) corresponded to CYP2C19/CYP2C-3; and dextromethorphan (1, 2, 5, 10, 20, 50 and 100 μM in HLMs and RLMs) corresponded to CYP2D6/CYP2D. After 5.0 min of preincubation in the shaking water bath, the reaction was started with the addition of 1.0 mM NADPH. The incubated temperature at 37°C for 30 min. After the incubation, the enzyme reaction was stopped by cooling at −80°C, and 200 μL of acetonitrile and 20 μL of internal standard diazepam (200 ng/mL) were added for protein precipitation. The solution was fully vortexed and centrifuged at 13,000 × rpm for 10 min, and the supernatant was collected for data analysis by UPLC-MS/MS.
The inhibitory mechanism of the inhibitor on the enzyme was generally used by different concentrations of the inhibitor against different concentrations of the probe substrate. The concentrations of the inhibitor and the concentrations of probe substrates in the experiment were estimated based on IC50 and Km values, respectively.
In RLMs, the concentrations of the substrates midazolam and dextromethorphan were 0.8, 1.6, 3.5, 7 μM and 5, 10, 20, 40 μM, respectively, vortioxetine concentrations were 4, 8, 16, 32 μM. The concentrations of mephenytoin and amodiaquine were 100, 200, 400, 800 μM and 5, 10, 20, 40 μM, respectively, vortioxetine concentrations were 5, 10, 20, 40 μM. The losartan concentrations were 4, 8, 15, 30 μM, corresponding to vortioxetine concentrations of 0.08, 0.15, 0.3, 0.6 μM. […]
as §2, §3

CYP2C19 = CYP2C19 (Homo sapiens, UniProt P33261); assay: IC50 of vortioxetine on CYP2C19 (mephenytoin) in HLMs; format: in vitro ADME; parameters: 0.20 mg/mL HLMs; from tissue; host or cells: human liver microsomes
Protocol: as §1, §2, §3

Sequence of CYP2C9 (P11712 whole entry): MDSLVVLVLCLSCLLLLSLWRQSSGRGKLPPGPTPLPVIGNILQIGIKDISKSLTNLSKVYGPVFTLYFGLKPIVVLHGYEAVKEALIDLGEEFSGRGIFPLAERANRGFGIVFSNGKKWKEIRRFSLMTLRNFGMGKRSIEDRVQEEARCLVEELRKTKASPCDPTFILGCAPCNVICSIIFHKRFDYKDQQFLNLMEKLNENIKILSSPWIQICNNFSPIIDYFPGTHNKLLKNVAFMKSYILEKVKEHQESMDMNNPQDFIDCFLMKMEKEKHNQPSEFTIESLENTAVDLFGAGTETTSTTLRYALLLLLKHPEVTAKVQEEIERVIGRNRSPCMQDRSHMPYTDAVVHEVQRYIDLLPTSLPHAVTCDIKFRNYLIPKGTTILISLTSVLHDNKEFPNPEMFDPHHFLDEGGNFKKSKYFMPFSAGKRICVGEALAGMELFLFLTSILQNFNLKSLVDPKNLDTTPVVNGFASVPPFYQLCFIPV
Sequence of CYP2C19 (P33261 whole entry): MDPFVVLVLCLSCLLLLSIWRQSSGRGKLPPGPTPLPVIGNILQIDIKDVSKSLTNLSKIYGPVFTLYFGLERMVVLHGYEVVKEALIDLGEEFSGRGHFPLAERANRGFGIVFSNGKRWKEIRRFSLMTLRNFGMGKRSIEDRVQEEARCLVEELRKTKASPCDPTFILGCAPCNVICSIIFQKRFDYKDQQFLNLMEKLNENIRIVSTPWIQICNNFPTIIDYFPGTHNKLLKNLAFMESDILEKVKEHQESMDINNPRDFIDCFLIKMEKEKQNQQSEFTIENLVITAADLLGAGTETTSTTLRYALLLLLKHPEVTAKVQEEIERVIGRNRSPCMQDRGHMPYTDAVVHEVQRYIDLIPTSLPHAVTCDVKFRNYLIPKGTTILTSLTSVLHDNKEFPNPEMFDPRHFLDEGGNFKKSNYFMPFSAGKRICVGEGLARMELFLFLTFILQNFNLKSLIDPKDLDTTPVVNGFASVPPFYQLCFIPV

pIC50 (CYP2C-1 [1]; 30 min preincubation without NADPH, amodiaquine 20 μM): 4.70 | IC50 at 30 min (CYP2C-1 [1]; rat, rat liver microsomes, probe amodiaquine, 30 min preincubation without NADPH, amodiaquine 20 μM): 18.3 µM | Inhibition type (CYP2C-2; losartan, Lineweaver-Burk plot): competitive inhibition | Ki at 30 min (CYP2C-2; rat, rat liver microsomes, probe losartan): 0.12 µM | pIC50 (CYP2C9; 30 min preincubation with 1.0 mM NADPH): 4.78 | pIC50 (CYP2C9; 30 min preincubation without NADPH): 4.73 | reversibility of inhibition of CYP450 enzymes (CYP450; all CYP450 enzymes studied): reversible inhibition | α (CYP2C-1 [2]; amodiaquine): 1.42 | Inhibition type (CYP2C-1 [2]; amodiaquine, Lineweaver-Burk plot): mixed inhibition | αKi (CYP2C-1 [2]; amodiaquine, secondary plot of y-intercepts): 56.73 µM | Ki at 30 min (CYP2C-1 [2]; rat, rat liver microsomes, probe amodiaquine): 39.9 µM | pIC50 (CYP2C19; HLMs 0.20 mg/mL, mephenytoin at Km, 37°C, 30 min, read-out: IC50): 5.62 | pIC50 (CYP2C19; inhibitory effect (strength judged by IC50), HLMs): 5.00 to 6.00
Compound: Cc1ccc(Sc2ccccc2N2CCNCC2)c(C)c1 [vortioxetine]
IC50 shift at 30 min (CYP2C-1 [1]; rat, rat liver microsomes, probe amodiaquine, ratio IC50 (−) NADPH to IC50 (+) NADPH, read-out: IC50 fold shift): 1.98 | IC50 shift at 30 min (CYP2C9; human, human liver microsomes, probe losartan (8 μM), ratio IC50 (−) NADPH to IC50 (+) NADPH, read-out: IC50 fold shift): 1.11 | time-dependent inhibition (TDI) (CYP450; six CYP450 isoforms in HLMs and RLMs, judged by IC50-shift (>10 = TDI)): no time-dependent inhibition (TDI); also recorded: no TDI effect
